Data reported in BindingDB's records for doi:10.1021/bi990174x (University of Queensland, 1999).

Molecular target: T1, Dimer of Gag-Pol polyprotein [501-599,Q508K,L534I,L564I,C568A,C596A] (Human immunodeficiency virus 1, UniProt P03367, C568A/C596A/L534I/L564I/Q508K)
T1 construct: 501-599
Assay: Protease Inhibition Assay
Settings: pH 6.5; 37 °C

`CCC(=O)N[C@H](C(=O)N[C@@H](Cc1ccc(O)cc1)[C@H](O)CN[C@H]1Cc2ccc(cc2)OCCCNC(=O)[C@H](C(C)CC)NC1=O)C(C)C` (stereo partly drawn) [(2S)-N-[(2S,3R)-4-{[(8S,11S)-8-[(2S)-butan-2-yl]-7,10-dioxo-2-oxa-6,9-diazabicyclo[11.2.2]heptadeca-1(15),13,16-trien-11-yl]amino}-3-hydroxy-1-(4-hydroxyphenyl)butan-2-yl]-3-methyl-2-propanamidobutanamide] showed a Ki of 3 nM.
